{"source": "paper PMC9706920", "about": "“Aryloxypropanolamine targets amyloid aggregates and reverses Alzheimer-like phenotypes in Alzheimer mouse models” (Alzheimer's Research & Therapy, 2022)", "key": {"α-synuclein aggregates": {"molecular_target": "α-synuclein aggregates (Homo sapiens, UniProt P37840)", "assay": "ThT dissociation assay against α-synuclein aggregation", "assay_type": "biochemical", "details": "α-synuclein 35 μM pre-aggregated 3 days, compound additional 3 days", "procedure": "[picture] Figure S5. ThT dissocation assay against α-synuclein aggregation. Dissociative effects of YIAD001 and YIAD002 against α-synuclein aggregation were evaluated using ThT fluorescence. α-synuclein (35 μM) was pre-aggregated for 3 days. YIAD001 and YIAD002 were added to and co-incubated with pre-aggregated samples for an additional 3 days. Aggregation time for α-synuclein is indicated as ‘+’ for 3 days and ‘++’ for 6 days. All fluorescence intensities were normalized and statistically compared to α-synuclein-only 3 days (+) control (100%). One-way analysis of variance followed by Bonferroni’s post-hoc comparisons tests were performed in all statistical analyses (****P < 0.0001). Data are presented as mean ± SEM. Abbreviations: Aggr. = Aggregation, Cpd. = Compound."}, "[1]": {"molecular_target": "T1, Aβ-Aβ interactions (Aβ(1–42) fragments) (Homo sapiens, UniProt P05067)", "T1 construct": "we added monomeric Aβ(1–42) (10 μM) labeled with fluorescent dye Flamma 552 to each well", "T1 sequence (P05067 672-713)": "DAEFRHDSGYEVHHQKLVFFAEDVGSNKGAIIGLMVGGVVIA", "assay": "Mapping assay of Aβ(1–42) with peptide fragments", "assay_type": "biochemical", "details": "YIAD002 500 μM, 24 h, Flamma 552-labeled Aβ(1–42) 10 μM, compared to full-length Aβ(1–42) control", "procedure": "Aβ fragments made up of six overlapping amino acid residues and a cysteine residue at the C-terminal were acquired by Fmoc solid phase peptide synthesis as previously described. Full length Aβ(1–42) with an additional cysteine residue at the C-terminal was used for comparison. The peptides were dissolved in DMSO ([…]) and diluted in binding buffer (0.1 M sodium phosphate, 0.15 M sodium chloride, 10 mM EDTA; pH 7.2) to prepare 50 μg/mL peptide solutions. To immobilize the Aβ fragments and monomers to maleimide-activated microplates, 100 μL of peptide solutions (50 μg/mL) was added and incubated at RT for 2 h while shaking. Cysteine solution (10 μg/mL with binding buffer) was added to cap unreacted maleimide groups. […] To define the fluorescence baseline for each well, fluorescence intensity was measured at 555 (excitation) and 580 (emission). YIAD002 (500 μM in binding buffer, 7.5% DMSO) was added to each well and incubated at RT for 24 h while shaking. Fluorescence intensity was remeasured at 555 (excitation) and 580 (emission) and baseline fluorescence was subtracted to quantify the change in fluorescence intensity caused by YIAD002. The plate was washed with 200 μL of wash buffer (0.1 M sodium phosphate, 0.15 M sodium chloride, 0.05% Tween®-20 Detergent; pH 7.2) per well three times in between steps."}, "BBB-PAMPA": {"assay": "BBB-PAMPA", "assay_type": "in vitro ADME", "details": "50 μM", "procedure": "Commercially available Double-Sink PAMPA (Pion® Double sink) assay was performed using a two compartment 96-well microtiter plate and protocols specified by the manufacturer. […] Stock solutions of controls and YIAD002 were dissolved in DMSO (10 mM) and subsequently diluted to 200-fold in pION buffer (pH 7.4) to 50 μM. The donor plate of the PAMPA sandwich was loaded with 50 μM solutions, and after wetting the artificial membrane with BBB lipid solution, the acceptor plate was loaded with acceptor sink buffer. Then, the acceptor plate was placed on the donor plate and incubated at 25°C for 4 h. Compound concentration in the reference, donor, and acceptor plates were measured on a UV plate."}, "[2]": {"assay": "Microsomal stability, human", "assay_type": "in vitro ADME", "details": "1 μM, 30 min, 37°C", "procedure": "To evaluate the rate of drug metabolism, we tested YIAD002 stability in liver microsomes of human, rat, and mouse. Microsomal concentration was 0.5 mg/ml in 0.1 M phosphate buffer (pH 7.4). 1 μM of YIAD002 was added to microsome solutions and was prewarmed at 37°C for 5 min. NADPH-regenerating solution was added to microsomes and incubated at 37°C for 30 min. At the end of incubation, acetonitrile with chlorpropamide was added to stop reactions and microsomal solutions were centrifuged at 14,000 rpm at 4°C for 5 min. For LC-MS/MS analysis, supernatants were injected on a Kinetex C18 column (2.1 × 100 mm, 2.6 μm particle size, Phenomenex, USA). The composition of the mobile phase was 0.1% formic acid in water (A) and 0.1% formic acid in acetonitrile (B)."}, "Aβ(pE3-42) aggregates": {"molecular_target": "T2, Aβ(pE3-42) aggregates (Homo sapiens, UniProt P05067)", "T2 construct": "Aβ(pE3-42), p[…]; made in house; host or cells: chemical synthesis (Fmoc solid phase peptide synthesis)", "T2 sequence (P05067 674-713)": "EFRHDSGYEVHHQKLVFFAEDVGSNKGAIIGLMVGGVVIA", "assay": "ThT fluorescence Aβ(pE3-42) disaggregation assay", "assay_type": "biochemical", "details": "Fig. 4D", "procedure": "ThT fluorescence was used to assess the in vitro inhibition of Aβ(1–42) and disaggregation of Aβ(1–42), Aβ(1–40), Aβ(pE3-42), recombinant tau K18, and tau repeats R1, R2, R3, R4 by YIAD compounds. In house synthetic Aβ(1–42) was dissolved in DMSO (1 mM, 100% DMSO) and diluted to 20-fold in deionized water to make 50 μM Aβ(1–42) stocks (5% DMSO). YIAD compounds were first dissolved in DMSO (100 mM, 100% DMSO) and serially diluted with deionized water to make YIAD stocks with concentrations of 1, 10, 100, and 1000 μM (10% DMSO). For the Aβ(1–42) inhibition assay, monomeric Aβ(1–42) stocks and YIAD stocks were co-incubated at 37°C for 3 days. For Aβ(1–42) disaggregation assay, monomeric Aβ(1–42) stocks were preincubated at 37°C for three days to form Aβ(1–42) aggregates, and subsequently, YIAD stocks were added for an additional 3 days. For Aβ(1-40) disaggregation assays, Aβ(1–40) (50 μM, 5% DMSO) was preincubated at 37°C for 3 days to induce aggregation, and co-incubated with YIAD001 and YIAD002 for an additional 3 days. […] Prior to fluorescence intensity measurement, ThT solution (5 μM) was prepared by dissolving ThT, purchased from Sigma-Aldrich (MO, USA) in 50 mM glycine buffer (pH 8.5). To quantify the effect of inhibition and disaggregation, 25 μL of all samples and 75 μL of ThT solution were loaded into a half-area 96-well black plate in triplicate."}}}
{"smiles": "CCC(C)(C)c1ccc(OCC(O)CN2CCCC2)c(C(C)(C)CC)c1.Cl", "note": "(stereo not drawn) [YIAD002, 1-(3-(2,4-Di-tert-pentylphenoxy)-2-hydroxypropyl)pyrrolidin-1-ium chloride]", "values": [{"measurement": "Interaction with α-synuclein aggregates (ThT dissociation)", "setting": "α-synuclein aggregates", "value": "did not interact with α-synuclein aggregates"}, {"measurement": "Dissociation of Aβ-Aβ interactions at immobilised Aβ fragments", "setting": "[1]", "value": "markedly dissociated Aβ-Aβ interactions at residues Aβ(16–21), KLVFFA, and Aβ(32–37), IGLMVG"}, {"measurement": "BBB permeability class", "setting": "BBB-PAMPA; classification ranges ref 25", "value": "high BBB permeability"}, {"measurement": "Papp at 4 h, 50 μM", "setting": "BBB-PAMPA; PAMPA, pH 7.4, 25°C, 4 h, read-out: Effective permeability coefficient Pe", "value": 36.8, "unit": "×10⁻⁶ cm/s"}, {"measurement": "Remaining compound in human microsomes", "setting": "[2]", "value": 55.5, "unit": "%"}, {"measurement": "Dissociative activity against Aβ(pE3-42) aggregates", "setting": "Aβ(pE3-42) aggregates", "value": "dissociative activity"}]}
